Reference: paper PMC4102551, “Screening and Characterisation of Antimicrobial Properties of Semisynthetic Betulin Derivatives” (PLoS ONE, 2014)
Where “and” joins values, the source holds several entries; their conditions need not be identical. Identical values can stand only once. Like-named read-outs stand apart in the source and are kept apart here.

Tests used:
[1] = test system: S. aureus and E. faecalis; design: method as in PMID 18835348; details: ref 36; cited from earlier work
[2] = test system: C. albicans ATCC 90028; assay: Broth microdilution assay, C. albicans; type: cell-based, Candida albicans
Outline: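 Candida albicans ATCC 90028 was grown on Sabouraud Dextrose Agar at 27°C for 16–18 h, then suspended in sterile 0.9% saline. Broth microdilution in clear 96-well plates mixed equal volumes of yeast suspension and diluted sample. Plates were incubated with agitation at 35°C for 48 h. Absorbance at 620 nm was read at 0, 24 and 48 h, and growth inhibition was expressed as a percentage relative to controls.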

[3] = test system: S. aureus ATCC 25923; assay: Broth microdilution assay, S. aureus; type: cell-based, Staphylococcus aureus; details: for inhibition at 50 µM: Staphylococcus aureus, ATCC25923, 24 h
Outline: (§1)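 Broth microdilution per CLSI/EUCAST in Mueller Hinton II broth, 5×10^5 cfu/mL, 24 h at 37°C with agitation; growth by absorbance at 620 nm versus controls. Compounds first screened at 50 µM.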

[4] = test system: E. aerogenes ATCC 13048; assay: Broth microdilution assay, E. aerogenes; type: cell-based, Enterobacter aerogenes; details: for inhibition at 50 µM: Klebsiella aerogenes, ATCC13048, 24 h, read-out: Inhibitory effect (%) E. aerogenes ATCC 13048
Outline: as §1

[5] = test system: E. coli ATCC 25922; assay: Broth microdilution assay, E. coli; type: cell-based, Escherichia coli
Outline: as §1

[6] = test system: E. faecalis ATCC 29212; assay: Broth microdilution assay, E. faecalis; type: cell-based, Enterococcus faecalis; details: for inhibition at 50 µM: Enterococcus faecalis, ATCC29212, 24 h
Outline: as §1

[7] = test system: Huh-7 cells; assay: cells; type: cell-based, human; details: for Cytotoxicity (%) Huh-7 cells: 50 µM
Outline: (§2)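 Cytotoxicity read-out: intracellular ATP (CellTiter-Glo luminescence) in Huh-7 hepatoma cells seeded at 20000 cells/well, cultured overnight, then exposed to compounds for 24 h at 37°C in 5% FBS medium. Polymyxin B sulphate (15000 IU/mL) served as positive control.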

[8] = in vitro; type: cell-based, human; details: human
Outline: as §2

[9] = test system: P. aeruginosa ATCC 27853; assay: Broth microdilution assay, P. aeruginosa; type: cell-based, Pseudomonas aeruginosa
Outline: as §1

[10] = test system: all microbial strains tested; assay: Primary antimicrobial screening, all strains; type: cell-based; details: 50 µM
Source text: Gram-negative strains Escherichia coli (ATCC 25922), Enterobacter aerogenes (ATCC 13048) and Pseudomonas aeruginosa (ATCC 27853), Gram-positive strains Staphylococcus aureus (ATCC 25923) and Enterococcus faecalis (ATCC 29212), and fungal strain Candida albicans (ATCC 90028) were obtained from Microbiologics Inc., and used for the antimicrobial screening. Strains were selected according to the guidelines set for clinical laboratories by Clinical and Laboratory Standards Institute [CLSI, formerly National Committee on Clinical Laboratory Standards [22]] and the European Committee on Antimicrobial Susceptibility Testing (EUCAST). Bacterial strains were grown on Mueller Hinton II Agar (MHA) (BBL, BD) and Mueller Hinton II broth (MHB) (BBL, BD), whereas Candida was initiated on Sabouraud Dextrose Agar (SDA) (Difco, BD) plates. Media were prepared into MilliQ water according to manufacturer’s instruction and autoclaved at 121°C for 15 min. Bacteria were plated on MHA plates and incubated at 37°C for 16–18 h. […] Absorbance was measured at 620 nm with Victor plate reader (Wallac 1420, Perkin Elmer) at 0, 4 and 24 h with the bacteria, and at 0, 24 and 48 h with Candida. The antimicrobial activity of the samples was calculated from the absorbance values by comparing to the controls, and expressed as a percentage inhibition of growth. […]

[11] = Candida albicans, ATCC90028, 48 h; read-out: Inhibitory effect (%) C. albicans ATCC 90028
[12] = 50 µM, 24 h, inhibition of growth, mean ± SD, read-out: Inhibitory effect (%) S. aureus ATCC 25923
[13] = 50 µM, 24 h, inhibition of growth, mean ± SD
[14] = Escherichia coli, ATCC25922, 24 h; read-out: Inhibitory effect (%) E. coli ATCC 25922
[15] = 50 µM, 24 h, inhibition of growth, mean ± SD, read-out: Inhibitory effect (%) E. faecalis ATCC 29212
[16] = Pseudomonas aeruginosa, ATCC27853, 24 h; read-out: Inhibitory effect (%) P. aeruginosa ATCC 27853
[17] = 50 µM, 48 h at 35°C, inhibition of growth, mean ± SD
[18] = 24 h exposure, ATP content, 5% FBS
[19] = 50 µM, 24 h exposure, ATP content, 5% FBS, read-out: Cytotoxicity (%) Huh-7 cells

| SMILES | inhibition at 50 µM [2, 11] | inhibition at 50 µM [3, 12] | inhibition at 50 µM [4, 13] | inhibition at 50 µM [5, 14] | inhibition at 50 µM [6, 15] | cytotoxicity at 24 h, 50 µM ([8]; Cytotoxicity (%) Huh-7 cells) | inhibition at 50 µM [9, 16] | Inhibitory effect (%) E. faecalis ATCC 29212 [6, 13] | Cytotoxicity (%) Huh-7 cells [7, 18] | also measured |
| --- | --- | --- | --- | --- | --- | --- | --- | --- | --- | --- |
| C[C@H]1[C@H](C)CC[C@]2(C(=O)O)CC[C@]3(C)C(=CC[C@@H]4[C@@]5(C)CC[C@H](O)C(C)(C)[C@@H]5CC[C@]43C)[C@H]12 [UA, ursolic acid] | – | – | – | – | – | – | – | – | – | MIC against S. aureus and E. faecalis [1]: 4 to 8 µg/mL |
| C=C(C)C1CCC2(C=NO)CCC3(C)C(CCC4C5(C)CCC(O)C(C)(C)C5CCC43C)C12 (stereo not drawn) [Compound 31, betulin-28-oxime] | -73.5% | 6.4 ± 3.4% | 14.6 ± 0.9% | 1.9 ± 4% | 41 ± 3.4% | 61% | 5.4 ± 2.2% | – | – | inhibition at 100 µM ([7]; Homo sapiens, Huh-7, 100 µM, 24 h, read-out: Inhibition in ATP assay, Huh-7 cells): 60%; Cytotoxicity (%) Huh-7 cells ([7]; human, 24 h): 61.5±2.0%; IC50 at 24 h [8]: 25 µM |
| CC1(C)CC[C@]2(C(=O)O)CC[C@]3(C)C(=CC[C@@H]4[C@@]5(C)CC[C@H](O)C(C)(C)[C@@H]5CC[C@]43C)[C@@H]2C1 [OA, oleanolic acid] | – | – | – | – | – | – | – | – | – | MIC against S. aureus and E. faecalis [1]: 8 to 64 µg/mL |
| C=C(C)C1CCC2(COC(C)=O)CCC3(C)C(CCC4C5(C)CCC(=O)C(C)(C)C5CCC43C)C12 (stereo not drawn) [Compound 21] | – | – | – | – | – | – | – | 5.7±13.4% | -3.9±1.1% | Inhibitory effect (%) C. albicans ATCC 90028 [2, 17]: -13.9±24.7%; Inhibitory effect (%) S. aureus ATCC 25923 [3, 13]: 0.7±3.4%; Activity against all microbial strains tested [10]: inactive; Inhibitory effect (%) E. aerogenes ATCC 13048 [4, 13]: 12.6±6.2%; Inhibitory effect (%) E. coli ATCC 25922 [5, 13]: 2.6±1.8%; Inhibitory effect (%) P. aeruginosa ATCC 27853 [9, 13]: 4.7±2.0% |
| CCn1c(=O)n2n(c1=O)C1(C(C)C)CCC3(COC(C)=O)CCC4(C)C(=C31)C2CC1C2(C)CCC(OC(C)=O)C(C)(C)C2CCC14C (stereo not drawn) [Compound 43] | -9.7% | 2.9 ± 0.7% | 18.5 ± 2.2% | -3.7% | 57.1 ± 4.4% | – | 1.7 ± 1.7% | – | 86.0±2.0% | Effect on Huh-7 cell monolayer in ATP assay ([7]; 100 µM, 24 h): completely destroyed the cell monolayer; cytotoxicity at 24 h, 50 µM [8, 19]: 85%; IC50 at 24 h ([8]; 24 h exposure, ATP assay, 5% FBS, read-out: IC50 cytotoxicity Huh-7 cells): 16 µM |
| C=C(C)C1CCC2(COC(C)=O)CCC3(C)C(CCC4C5(C)CCC(OC(C)=O)C(C)(C)C5CCC43C)C12 (stereo not drawn) [Compound 14] | – | – | – | – | – | – | – | 22.8±17.5% | -11.1±3.8% | Inhibitory effect (%) C. albicans ATCC 90028 [2, 17]: -1.1±18.3%; Inhibitory effect (%) S. aureus ATCC 25923 [3, 13]: 13.8±3.2%; Activity against all microbial strains tested [10]: inactive; Inhibitory effect (%) E. aerogenes ATCC 13048 [4, 13]: 8.1±9.0%; Inhibitory effect (%) E. coli ATCC 25922 [5, 13]: -1.8±2.1%; Inhibitory effect (%) P. aeruginosa ATCC 27853 [9, 13]: 3.9±0.6% |
| C=C(C)[C@@H]1CC[C@]2(C(=O)Oc3ccc(C=O)cc3OC)CC[C@]3(C)[C@H](CC[C@@H]4[C@@]5(C)CCC(=O)C(C)(C)C5CC[C@]43C)[C@@H]12 (stereo partly drawn) [Compound 26, vanillinyl betulonate] | – | – | – | – | – | -10.1 ± 2.2% | – | 58.7±0.1% | – | inhibition at 50 µM ([2]; Candida albicans, ATCC90028, 48 h, read-out: Inhibitory effect (%) C. albicans ATCC 90028): -65.9 ± 15%; inhibition at 50 µM ([3]; read-out: Inhibitory effect (%) S. aureus ATCC 25923, 50 µM, 24 h, inhibition of growth, mean ± SD): 7.3 ± 5.8%; inhibition at 50 µM [4]: 7.5 ± 0.6%; inhibition at 50 µM ([5]; Escherichia coli, ATCC25922, 24 h, read-out: Inhibitory effect (%) E. coli ATCC 25922): 4.1 ± 0.4%; inhibition at 50 µM ([6]; read-out: Inhibitory effect (%) E. faecalis ATCC 29212, 50 µM, 24 h, inhibition of growth, mean ± SD): 59%; inhibition at 50 µM ([9]; Pseudomonas aeruginosa, ATCC27853, 24 h, read-out: Inhibitory effect (%) P. aeruginosa ATCC 27853): 6.6 ± 1% |
| C=C(C)[C@@H]1CC[C@]2(C=O)CC[C@]3(C)C(CCC4[C@@]5(C)CC[C@H](O)C(C)(C)C5CC[C@]43C)C12 (stereo partly drawn) [Compound 18, betulinic aldehyde] | 6.9 ± 8.1% | -35.5% | 13.5 ± 2.6% | 2.7 ± 2.4% | 39.6 ± 8% | 61% | 3.9 ± 0.6% | – | – | Cytotoxicity (%) Huh-7 cells ([7]; human, 24 h): 61.3±9.5%; IC50 at 24 h [8]: 47 µM |
| CC(=O)OCC12CCC3(C(C)C)C1=C1C(CC4C5(C)CCC(OC(C)=O)C(C)(C)C5CCC4(C)C1(C)CC2)n1c(=O)n(-c2cccc([N+](=O)[O-])c2)c(=O)n13 (stereo not drawn) [Compound 38] | -13.8% | 6.7 ± 1.5% | 19.3 ± 3% | 8.8 ± 2.6% | > 70% | – | 7.6 ± 1.4% | 74% and 73.9±1.4% | – | cytotoxicity at 24 h, 50 µM [8, 19]: 8.3 ± 3.9% |
